Results: patent US20120107820A1, “Multiplexed Quantitative PCR End Point Analysis of Nucleic Acid Targets” (MASSACHUSETTS INSTITUTE OF TECHNOLOGY, priority 2009, published 2012)

Tests used:
[1] = tested on: HL60 (human promyelocytic leukemia) cells; experiment: Gene expression profiling of tretinoin-treated HL60 cells, LMA RT-PCR amplicons detected on Luminex microspheres; format: cell-based; conditions: for Raw Signal (AU) / Differential Expression: log(tret/DMSO): HL60 cells; for Raw Signal (AU): 1 μmol/l tretinoin, five days; for Normalized Signal: normalized to LUA95, tretinoin-treated HL60 cells; for Differential Expression: log(tret/DMSO): tretinoin vs DMSO
Method: (§1) Gene expression profiling experiment were conducted to detect and quantify the effects of drug treatment on expression of certain target mRNAs in a complex sample using hydrogel particles. Applicants repeated previously reported multiplex ligation-mediated PCR experiments that used Luminex FlexMAP (Luminex, Austin, Tex., USA) optically addressed barcoded microspheres in side by side experiments with hydrogel particles using an endogenous reference gene for quantification. The methods used are described in Peck et al. A Method for High-Throughput Gene Expression Signature Analysis, Genome Biology, 7:R61, 2006; details are set forth in Example 3. Although the Peck et al experiments were done with traditional RT-PCR and hybridization in multiple steps, the experiments are amendable to embodiments of the present methods for one chamber quantitative multiplexed end point PCR.
(§2) HL60 (human promyelocytic leukemia) cells were cultured in the presence of either […] in DMSO or DMSO alone, and quantification was based on comparison of target mRNA expression to the reference gene […]. […] Upstream and downstream probe pairs designed for each of the targets by Peck were used to generate the amplicons. Unique upstream biotin-conjugated primers for each target included a 24 nucleotide bar code sequence for each of the five mRNAs. Applicants designed probes for immobilization on encoded hydrogel particles that were complementary to the 24 nucleotide bar code on each unique upstream primer to enable capture of the amplicons on encoded hydrogel particles. Methods for making the particles are described in Example 3. Each encoded hydrogel particle was made with multiple probe regions directed to each of the five mRNAs (four targets and one reference gene) and a control, respectively.
(§3) Total RNA was isolated from the HL60 cells, reverse-transcribed and amplified using a simple RT-PCR method. In order to compare the sensitivity of the encoded hydrogel particles to the Luminex magnetic particles, the exact protocol described by Peck et al. was followed. There were 39 cycles in which: there was an initial denaturation at 92° C. for 9 minutes, followed by denaturation at 92° C. for 30 s, followed by annealing at 60° C. for 30 s, extension at 72° C. for 30 s for 39 cycles, and a final extension at 72° C. for 5 minutes. After a final denaturation at 95° C. for two minutes hybridization was carried out at 45° C. for 60 minutes. Note that in the preferred embodiments of the present invention the hybridization temperature is from 2-15° C. […] than the primer annealing temperature to optimize specificity. By contrast, the hybridization temperature (45° C.) used by Peck et al. was 15° C. lower than the annealing temperature.
(§4) After hybridization, the respective Luminex and hydrogel particles were rinsed, incubated with streptavidin-phycoerythrin to fluorescently label the primers, rinsed again, and imaged for fluorescence. The fluorescent signals obtained were quantified and normalized against the internal reference (LUA95) after subtracting the background signal from the control region on each particle (CTL).
(§5) Similar to the protocol described in Peck et al., Genome Biology, 7:R61, 2006, HL60 (human promyelocytic leukemia) cells were cultured in RPMI supplemented with 10% fetal bovine serum and antibiotics. Cells were treated with 1 μmol/l tretinoin (all-trans retinoic acid; Sigma-Aldrich, St Louis, Mo., USA) in dimethyl sulfoxide (DMSO; final concentration 0.1%) or DMSO alone for five days. Total RNA was isolated from bulk cultures with TRIzol Reagent (Invitrogen, Carlsbad, Calif., USA), in accordance with the manufacturer's directions. For the classification exercise, microtiter plate cultures were treated with 200 nmol/l tretinoin or DMSO for two days to mimic the submaximal signatures likely to be encountered in a small molecule screen, and were and prepared for mRNA capture by the addition of Lysis Buffer (RNAture, Irvine, Calif., USA). […]

[2] = tested on: HL60 (human promyelocytic leukemia) cells; experiment: Gene expression profiling of tretinoin-treated HL60 cells, LMA RT-PCR amplicons detected on encoded hydrogel particles; format: cell-based; conditions: for Raw Signal (AU) / Differential Expression: log(tret/DMSO): HL60 cells; for Raw Signal (AU): 1 μmol/l tretinoin, five days; for Normalized Signal: normalized to LUA95, tretinoin-treated HL60 cells; for Differential Expression: log(tret/DMSO): tretinoin vs DMSO
Method: as §1, §2, §3, §4, §5

[3] = LUA95 (GAPDH3 internal reference, NM_002046)

**Q.** With CC1=C(/C=C/C(C)=C/C=C/C(C)=C/C(=O)O)C(C)(C)CCC1 [tretinoin] as the compound, how does the “Raw Signal (AU)” value ([1]; LUA7 mRNA (NM_000962)) read?
**A.** 389.3 AU

**Q.** What about the “Normalized Signal” value ([1]; LUA7 mRNA (NM_000962)) of the same compound?
**A.** 0.222

**Q.** What about the “Differential Expression: log(tret/DMSO)” value ([1]; LUA7 mRNA (NM_000962)) of the same compound?
**A.** 0.785

**Q.** And the “Raw Signal (AU)” value ([1]; LUA27 mRNA (NM_006432))?
**A.** 775.5 AU

**Q.** And the “Normalized Signal” value ([1]; LUA27 mRNA (NM_006432))?
**A.** 0.442

**Q.** And the “Differential Expression: log(tret/DMSO)” value ([1]; LUA27 mRNA (NM_006432))?
**A.** 0.871

**Q.** What about the “Raw Signal (AU)” value ([1]; LUA59 mRNA (NM_004095)) of the same compound?
**A.** 100.3 AU

**Q.** And the “Normalized Signal” value ([1]; LUA59 mRNA (NM_004095))?
**A.** 0.057

**Q.** What about the “Differential Expression: log(tret/DMSO)” value ([1]; LUA59 mRNA (NM_004095)) of the same compound?
**A.** −0.576

**Q.** What about the “Raw Signal (AU)” value ([1]; LUA68 mRNA (NM_003132)) of the same compound?
**A.** 178.0 AU

**Q.** What about the “Normalized Signal” value ([1]; LUA68 mRNA (NM_003132)) of the same compound?
**A.** 0.101

**Q.** And the “Differential Expression: log(tret/DMSO)” value ([1]; LUA68 mRNA (NM_003132))?
**A.** −0.619

**Q.** What about the “Raw Signal (AU)” value [1, 3] of the same compound?
**A.** 1754.4 AU

**Q.** What about the “Raw Signal (AU)” value ([2]; LUA7 mRNA (NM_000962)) of the same compound?
**A.** 7.44 AU

**Q.** And the “Normalized Signal” value ([2]; LUA7 mRNA (NM_000962))?
**A.** 0.084

**Q.** And the “Differential Expression: log(tret/DMSO)” value ([2]; LUA7 mRNA (NM_000962))?
**A.** 0.486

**Q.** And the “Raw Signal (AU)” value ([2]; LUA27 mRNA (NM_006432))?
**A.** 14.64 AU

**Q.** And the “Normalized Signal” value ([2]; LUA27 mRNA (NM_006432))?
**A.** 0.166

**Q.** And the “Differential Expression: log(tret/DMSO)” value ([2]; LUA27 mRNA (NM_006432))?
**A.** 0.818

**Q.** And the “Raw Signal (AU)” value ([2]; LUA59 mRNA (NM_004095))?
**A.** 1.14 AU

**Q.** What about the “Normalized Signal” value ([2]; LUA59 mRNA (NM_004095)) of the same compound?
**A.** 0.013

**Q.** And the “Differential Expression: log(tret/DMSO)” value ([2]; LUA59 mRNA (NM_004095))?
**A.** −0.841

**Q.** What about the “Raw Signal (AU)” value ([2]; LUA68 mRNA (NM_003132)) of the same compound?
**A.** 2.99 AU

**Q.** What about the “Normalized Signal” value ([2]; LUA68 mRNA (NM_003132)) of the same compound?
**A.** 0.034

**Q.** And the “Differential Expression: log(tret/DMSO)” value ([2]; LUA68 mRNA (NM_003132))?
**A.** −0.822

**Q.** What about the “Raw Signal (AU)” value [2, 3] of the same compound?
**A.** 88.45 AU
